Read-outs that look alike come from different tables or passages of the source.
Target: T1, RipN (Ralstonia pseudosolanacearum, UniProt Q8XQT8)
T1 construct: gene RSp1130
Settings: Mg2+ important, NEBuffer 3, 30 min

T1 sequence (Q8XQT8 1-474): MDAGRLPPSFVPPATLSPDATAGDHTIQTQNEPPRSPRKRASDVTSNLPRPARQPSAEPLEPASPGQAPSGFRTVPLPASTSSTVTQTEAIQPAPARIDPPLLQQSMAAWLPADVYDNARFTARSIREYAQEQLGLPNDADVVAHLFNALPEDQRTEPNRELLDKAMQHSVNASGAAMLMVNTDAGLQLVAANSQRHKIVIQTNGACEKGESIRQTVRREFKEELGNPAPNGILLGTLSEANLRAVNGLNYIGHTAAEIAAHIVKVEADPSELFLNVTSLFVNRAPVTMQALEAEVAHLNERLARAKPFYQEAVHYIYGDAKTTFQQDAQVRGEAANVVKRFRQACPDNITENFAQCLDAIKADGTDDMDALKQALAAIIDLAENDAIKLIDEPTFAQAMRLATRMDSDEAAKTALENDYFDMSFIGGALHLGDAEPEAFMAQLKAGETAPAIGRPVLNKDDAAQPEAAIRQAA

Structure (SMILES) | phosphate colorimetric assay coupled to alkaline phosphatase | phosphate colorimetric assay coupled to alkaline phosphatase (optimum pH 7.9-8.5)
NC(=O)C1=CN([C@@H]2O[C@H](COP(=O)(O)OP(=O)(O)OC[C@H]3O[C@@H](n4cnc5c(N)ncnc54)[C@H](O)[C@@H]3O)[C@@H](O)[C@H]2O)C=CC1 [NADH] | with ADPr and NADH being the preferred substrates in vitro | –
Nc1ncnc2c1ncn2[C@@H]1O[C@H](COP(=O)(O)OP(=O)(O)OC[C@H]2OC(O)[C@H](O)[C@@H]2O)[C@@H](O)[C@H]1O (some centres unmarked) [ADPr] | – | RipN can hydrolyse ADPr, NADH, NAD, FAD (flavin adenine dinucleotide) and Ap4A
